Experimental data: patent US10934298B2, “Substituted pyrazolo[1,5-a]pyrimidines for the treatment of medical disorders” (BIAL—BioTech Investments, Inc., priority 2016, dated 2021)

Target: T1, glucocerebrosidase (Gcase) (Homo sapiens, UniProt P04062)
T1 construct: micellar solution containing 10 nM GCase and 100 nM saposin C
T1 sequence (P04062 40-536): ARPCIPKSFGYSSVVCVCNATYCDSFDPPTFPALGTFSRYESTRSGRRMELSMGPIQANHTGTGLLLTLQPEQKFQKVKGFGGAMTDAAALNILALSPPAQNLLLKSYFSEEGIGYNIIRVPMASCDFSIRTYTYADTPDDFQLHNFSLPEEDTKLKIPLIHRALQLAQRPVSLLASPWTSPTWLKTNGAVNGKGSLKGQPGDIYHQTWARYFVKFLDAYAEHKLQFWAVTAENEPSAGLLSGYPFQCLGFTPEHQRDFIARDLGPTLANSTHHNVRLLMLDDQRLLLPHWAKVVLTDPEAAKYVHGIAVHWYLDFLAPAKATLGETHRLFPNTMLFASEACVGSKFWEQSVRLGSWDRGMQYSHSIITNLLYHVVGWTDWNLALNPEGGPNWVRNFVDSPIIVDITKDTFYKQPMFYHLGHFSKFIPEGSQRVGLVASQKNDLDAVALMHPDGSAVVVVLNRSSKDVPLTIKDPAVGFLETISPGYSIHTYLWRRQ
Test: Glucocerebrosidase (Gcase) activation assay with 4-methylumbelliferyl-beta-D-glucopyranoside substrate, saposin C and phosphatidylserine/triton micelles, fluorescence readout
Assay type: biochemical
Settings: for Percent Gcase Activation, 0.1 μM Test Compound: test compound at 0.1 μM; for Percent Gcase Activation, 1 μM Test Compound: test compound at 1.0 μM
Summary of the method: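 Readout is endpoint fluorescence (ex 365, em 440 nm) after glycine pH 12.5 stop of a 15-min room-temperature reaction. Enzyme mix: GCase 10 nM plus saposin C 100 nM in 0.37 mol % PS/0.32 mM triton micelles, pH 4.7, compound pre-incubated 30 min; substrate solution 2 mM before 1:1 mixing. Tested at 1.0/0.1 μM, then 3-fold, 8-point series up to 5 μM.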

## Cc1cc(-c2ccon2)nc2c(C(=O)N[C@H](C3CC3)C(F)(F)F)cnn12 [III-240]
  Percent Gcase Activation, 0.1 μM Test Compound: *** (greater than 20% Gcase activation)
  Percent Gcase Activation, 1 μM Test Compound: +++ (Gcase activation greater than 60%)

## Cc1cc(-c2ccon2)nc2c(C(=O)N[C@@H](C3CC3)C(F)(F)F)cnn12 [III-241]
  Percent Gcase Activation, 0.1 μM Test Compound: *** (greater than 20% Gcase activation)
  Percent Gcase Activation, 1 μM Test Compound: +++ (Gcase activation greater than 60%)

## Cc1oc(C#N)cc1-c1cc(C)n2ncc(C(=O)NC(C3CC3)C(F)(F)F)c2n1 (centres unmarked) [III-242]
  Percent Gcase Activation, 0.1 μM Test Compound: *** (greater than 20% Gcase activation)
  Percent Gcase Activation, 1 μM Test Compound: +++ (Gcase activation greater than 60%)

## Cc1oc(C#N)cc1-c1cc(C)n2ncc(C(=O)N[C@H](C3CC3)C(F)(F)F)c2n1 [III-243]
  Percent Gcase Activation, 0.1 μM Test Compound: *** (greater than 20% Gcase activation)
  Percent Gcase Activation, 1 μM Test Compound: +++ (Gcase activation greater than 60%)

## Cc1oc(C#N)cc1-c1cc(C)n2ncc(C(=O)N[C@@H](C3CC3)C(F)(F)F)c2n1 [III-244]
  Percent Gcase Activation, 0.1 μM Test Compound: *** (greater than 20% Gcase activation)
  Percent Gcase Activation, 1 μM Test Compound: +++ (Gcase activation greater than 60%)

## Cc1cc(C#N)c(-c2cc(C)n3ncc(C(=O)NC(C4CC4)C(F)(F)F)c3n2)o1 (centres unmarked) [III-245]
  Percent Gcase Activation, 0.1 μM Test Compound: * (less than 10% Gcase activation)
  Percent Gcase Activation, 1 μM Test Compound: + (less than 30% Gcase activation)

## Cc1ncc(-c2cc(C)n3ncc(C(=O)NC(C4CC4)C(F)(F)F)c3n2)o1 (centres unmarked) [III-246]
  Percent Gcase Activation, 0.1 μM Test Compound: ** (Gcase activation in the range of 10% up to 20%)
  Percent Gcase Activation, 1 μM Test Compound: +++ (Gcase activation greater than 60%)

## Cc1ncc(-c2cc(C)n3ncc(C(=O)N[C@H](C4CC4)C(F)(F)F)c3n2)o1 [III-247]
  Percent Gcase Activation, 0.1 μM Test Compound: *** (greater than 20% Gcase activation)
  Percent Gcase Activation, 1 μM Test Compound: +++ (Gcase activation greater than 60%)

## Cc1ncc(-c2cc(C)n3ncc(C(=O)N[C@@H](C4CC4)C(F)(F)F)c3n2)o1 [III-248]
  Percent Gcase Activation, 0.1 μM Test Compound: *** (greater than 20% Gcase activation)
  Percent Gcase Activation, 1 μM Test Compound: +++ (Gcase activation greater than 60%)

## Cc1nc(-c2cc(C)n3ncc(C(=O)NC(C4CC4)C(F)(F)F)c3n2)co1 (centres unmarked) [III-249]
  Percent Gcase Activation, 0.1 μM Test Compound: ** (Gcase activation in the range of 10% up to 20%)
  Percent Gcase Activation, 1 μM Test Compound: +++ (Gcase activation greater than 60%)

## Cc1cc(-c2occc2C#N)nc2c(C(=O)NC(C3CC3)C(F)(F)F)cnn12 (centres unmarked) [III-250]
  Percent Gcase Activation, 0.1 μM Test Compound: *** (greater than 20% Gcase activation)
  Percent Gcase Activation, 1 μM Test Compound: +++ (Gcase activation greater than 60%)

## Cc1nc(-c2cc(C)n3ncc(C(=O)NC(C)(C)C4CC4)c3n2)co1 [III-251]
  Percent Gcase Activation, 0.1 μM Test Compound: ** (Gcase activation in the range of 10% up to 20%)
  Percent Gcase Activation, 1 μM Test Compound: +++ (Gcase activation greater than 60%)

## Cc1ncc(-c2cc(C)n3ncc(C(=O)NC(C)(C)C4CC4)c3n2)o1 [III-252]
  Percent Gcase Activation, 0.1 μM Test Compound: * (less than 10% Gcase activation)
  Percent Gcase Activation, 1 μM Test Compound: +++ (Gcase activation greater than 60%)

## Cc1cnc(-c2cc(C)n3ncc(C(=O)NC(C4CC4)C(F)(F)F)c3n2)o1 (centres unmarked) [III-253]
  Percent Gcase Activation, 0.1 μM Test Compound: *** (greater than 20% Gcase activation)
  Percent Gcase Activation, 1 μM Test Compound: +++ (Gcase activation greater than 60%)

## Cc1coc(-c2cc(C)n3ncc(C(=O)NC(C4CC4)C(F)(F)F)c3n2)n1 (centres unmarked) [III-254]
  Percent Gcase Activation, 0.1 μM Test Compound: *** (greater than 20% Gcase activation)
  Percent Gcase Activation, 1 μM Test Compound: +++ (Gcase activation greater than 60%)

## Cc1coc(-c2cc(C)n3ncc(C(=O)N[C@H](C4CC4)C(F)(F)F)c3n2)n1 [III-255]
  Percent Gcase Activation, 0.1 μM Test Compound: ** (Gcase activation in the range of 10% up to 20%)
  Percent Gcase Activation, 1 μM Test Compound: +++ (Gcase activation greater than 60%)

## Cc1coc(-c2cc(C)n3ncc(C(=O)N[C@@H](C4CC4)C(F)(F)F)c3n2)n1 [III-256]
  Percent Gcase Activation, 0.1 μM Test Compound: *** (greater than 20% Gcase activation)
  Percent Gcase Activation, 1 μM Test Compound: +++ (Gcase activation greater than 60%)

## Cc1cc(N2CCCN(C(C)C)C2=O)nc2c(C(=O)NC(C3CC3)C(F)(F)F)cnn12 (centres unmarked) [III-257]
  Percent Gcase Activation, 0.1 μM Test Compound: ** (Gcase activation in the range of 10% up to 20%)
  Percent Gcase Activation, 1 μM Test Compound: ++ (Gcase activation in the range of 30% up to 60%)

## Cc1cc(N2CCCN(C(C)C)C2=O)nc2c(C(=O)NC(C)(C)C)cnn12 [III-258]
  Percent Gcase Activation, 0.1 μM Test Compound: * (less than 10% Gcase activation)
  Percent Gcase Activation, 1 μM Test Compound: + (less than 30% Gcase activation)

## Cc1cc(N2CCCN(C(C)C)C2=O)nc2c(C(=O)NC(C)C(F)(F)F)cnn12 (centres unmarked) [III-259]
  Percent Gcase Activation, 0.1 μM Test Compound: * (less than 10% Gcase activation)
  Percent Gcase Activation, 1 μM Test Compound: + (less than 30% Gcase activation)

## Cc1cc(N2CCCN(CC(F)(F)F)C2=O)nc2c(C(=O)NC(C3CC3)C(F)(F)F)cnn12 (centres unmarked) [III-260]
  Percent Gcase Activation, 0.1 μM Test Compound: * (less than 10% Gcase activation)
  Percent Gcase Activation, 1 μM Test Compound: ++ (Gcase activation in the range of 30% up to 60%)

## Cc1cc(N2CCCN(C(C)C)C2=O)nc2c(C(=O)NC(C)(C)C3CC3)cnn12 [III-261]
  Percent Gcase Activation, 0.1 μM Test Compound: * (less than 10% Gcase activation)
  Percent Gcase Activation, 1 μM Test Compound: + (less than 30% Gcase activation)

## Cc1cc(N2CCCN(C(C)C)C2=O)nc2c(C(=O)NC(C)(C)C(F)(F)F)cnn12 [III-262]
  Percent Gcase Activation, 0.1 μM Test Compound: * (less than 10% Gcase activation)
  Percent Gcase Activation, 1 μM Test Compound: + (less than 30% Gcase activation)

## COc1ccncc1-c1cc(C)n2ncc(C(=O)NC(C3CC3)C(F)(F)F)c2n1 (centres unmarked) [III-263]
  Percent Gcase Activation, 0.1 μM Test Compound: * (less than 10% Gcase activation)
  Percent Gcase Activation, 1 μM Test Compound: ++ (Gcase activation in the range of 30% up to 60%)

## Cc1cc(-c2ccc(F)o2)nc2c(C(=O)NC(C3CC3)C(F)(F)F)cnn12 (centres unmarked) [III-264]
  Percent Gcase Activation, 0.1 μM Test Compound: *** (greater than 20% Gcase activation)
  Percent Gcase Activation, 1 μM Test Compound: +++ (Gcase activation greater than 60%)

## COc1cncc(-c2cc(C)n3ncc(C(=O)NC(C4CC4)C(F)(F)F)c3n2)c1 (centres unmarked) [III-265]
  Percent Gcase Activation, 0.1 μM Test Compound: *** (greater than 20% Gcase activation)
  Percent Gcase Activation, 1 μM Test Compound: +++ (Gcase activation greater than 60%)

## COc1cncc(-c2cc(C)n3ncc(C(=O)N[C@H](C4CC4)C(F)(F)F)c3n2)c1 [III-266]
  Percent Gcase Activation, 0.1 μM Test Compound: *** (greater than 20% Gcase activation)
  Percent Gcase Activation, 1 μM Test Compound: +++ (Gcase activation greater than 60%)

## COc1cncc(-c2cc(C)n3ncc(C(=O)N[C@@H](C4CC4)C(F)(F)F)c3n2)c1 [III-267]
  Percent Gcase Activation, 0.1 μM Test Compound: *** (greater than 20% Gcase activation)
  Percent Gcase Activation, 1 μM Test Compound: +++ (Gcase activation greater than 60%)

## COc1ccc(-c2cc(C)n3ncc(C(=O)NC(C4CC4)C(F)(F)F)c3n2)cn1 (centres unmarked) [III-268]
  Percent Gcase Activation, 0.1 μM Test Compound: *** (greater than 20% Gcase activation)
  Percent Gcase Activation, 1 μM Test Compound: +++ (Gcase activation greater than 60%)

## COc1ccncc1-c1cc(C)n2ncc(C(=O)NC(C)C(F)(F)F)c2n1 (centres unmarked) [III-269]
  Percent Gcase Activation, 0.1 μM Test Compound: * (less than 10% Gcase activation)
  Percent Gcase Activation, 1 μM Test Compound: + (less than 30% Gcase activation)

## COc1cncc(-c2cc(C)n3ncc(C(=O)NC(C)C(F)(F)F)c3n2)c1 (centres unmarked) [III-270]
  Percent Gcase Activation, 0.1 μM Test Compound: ** (Gcase activation in the range of 10% up to 20%)
  Percent Gcase Activation, 1 μM Test Compound: +++ (Gcase activation greater than 60%)

## COc1ccc(-c2cc(C)n3ncc(C(=O)NC(C)C(F)(F)F)c3n2)cn1 (centres unmarked) [III-271]
  Percent Gcase Activation, 0.1 μM Test Compound: *** (greater than 20% Gcase activation)
  Percent Gcase Activation, 1 μM Test Compound: +++ (Gcase activation greater than 60%)

## COc1ccc(-c2cc(C)n3ncc(C(=O)N[C@H](C)C(F)(F)F)c3n2)cn1 [III-272]
  Percent Gcase Activation, 0.1 μM Test Compound: ** (Gcase activation in the range of 10% up to 20%)
  Percent Gcase Activation, 1 μM Test Compound: +++ (Gcase activation greater than 60%)

## COc1ccc(-c2cc(C)n3ncc(C(=O)N[C@@H](C)C(F)(F)F)c3n2)cn1 [III-273]
  Percent Gcase Activation, 0.1 μM Test Compound: *** (greater than 20% Gcase activation)
  Percent Gcase Activation, 1 μM Test Compound: +++ (Gcase activation greater than 60%)
